Experimental data published in ChEMBL document CHEMBL1201862, “PubChem BioAssay data set” (2004).
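Tested at 5 concentrations; 48 h exposure; 96-well plates; endpoints linearly interpolated, else capped at highest concentration. The concentration for 50% growth inhibition is given as GI50.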 The source made the active and inactive calls. No stated cut-off is given here; in the data, active = GI50 up to about 1.1 µM and inactive = higher.

Key:
Assay in all cases: NCI-60 cell line screen, 48 h
Hs-578T = tested on: Hs-578T
K562 = tested on: K562
TK-10 = tested on: TK-10
SF-295 = tested on: SF-295
COLO 205 = tested on: COLO 205
OVCAR-5 = tested on: OVCAR-5
MDA-N = tested on: MDA-N
786-0 = tested on: 786-0
MDA-MB-231 = tested on: MDA-MB-231
SN12C = tested on: SN12C
PC-3 = tested on: PC-3
RXF 393 = tested on: RXF 393
MCF7 = tested on: MCF7
UO-31 = tested on: UO-31
SW-620 = tested on: SW-620
MOLT-4 = tested on: MOLT-4
NCI-H522 = tested on: NCI-H522
KM12 = tested on: KM12
EKVX = tested on: EKVX
HL-60 = tested on: HL-60

SMILES | GI50 (Hs-578T) | GI50 (K562) | GI50 (TK-10) | GI50 (SF-295) | GI50 (COLO 205) | GI50 (OVCAR-5) | GI50 (MDA-N) | GI50 (786-0) | GI50 (MDA-MB-231) | GI50 (SN12C) | GI50 (PC-3) | GI50 (RXF 393) | GI50 (MCF7) | GI50 (UO-31) | GI50 (SW-620) | GI50 (MOLT-4) | GI50 (NCI-H522) | GI50 (KM12) | GI50 (EKVX) | GI50 (HL-60)
O=S(=O)(Cc1cnc(O)nc1O)Cc1cnc(O)nc1O | > 100 µM (inactive) | > 100 µM (inactive) | > 100 µM (inactive) | > 100 µM (inactive) | > 100 µM (inactive) | > 100 µM (inactive) | > 100 µM (inactive) | > 100 µM (inactive) | > 100 µM (inactive) | > 100 µM (inactive) | > 100 µM (inactive) | > 100 µM (inactive) | > 100 µM (inactive) | > 100 µM (inactive) | > 100 µM (inactive) | > 100 µM (inactive) | > 100 µM (inactive) | > 100 µM (inactive) | > 100 µM (inactive) | 
CCOC(=O)C(Cc1ccc(N(CCCl)CCCl)cc1)NC(=O)C(Cc1ccccc1)NC(C)=O (centres undefined) | > 0.368 µM (active) | > 0.279 µM (active) |  | > 0.326 µM (active) | 0.213 µM (active) | > 0.293 µM (active) | > 0.262 µM (active) | 0.184 µM (active) | > 0.284 µM (active) | 0.155 µM (active) | > 0.254 µM (active) | 0.106 µM (active) | 0.163 µM (active) | 0.106 µM (active) | 0.236 µM (active) | 0.0581 µM (active) |  | > 0.338 µM (active) | > 0.347 µM (active) | 0.0908 µM (active)
C/C=C1/CN2CCC34C(=C(C(=O)OC)C1CC23)Nc1ccc(O)cc14 (centres undefined) | 34.3 µM (inactive) |  | > 100 µM (inactive) | 77.8 µM (inactive) | > 100 µM (inactive) | > 100 µM (inactive) | > 100 µM (inactive) | 59.3 µM (inactive) | > 100 µM (inactive) | > 100 µM (inactive) | > 100 µM (inactive) |  | > 100 µM (inactive) | > 100 µM (inactive) | > 100 µM (inactive) | > 100 µM (inactive) | > 100 µM (inactive) | > 100 µM (inactive) | > 100 µM (inactive) | > 100 µM (inactive)
O=C1c2ccccc2-c2c1c(-c1ccc([N+](=O)[O-])cc1)nc1ccc3ccccc3c21 | > 100 µM (inactive) | > 100 µM (inactive) |  | > 100 µM (inactive) | > 100 µM (inactive) | > 100 µM (inactive) | > 100 µM (inactive) | > 100 µM (inactive) | > 100 µM (inactive) | > 100 µM (inactive) | > 100 µM (inactive) |  | > 100 µM (inactive) | > 100 µM (inactive) | > 100 µM (inactive) | > 100 µM (inactive) |  | > 100 µM (inactive) | > 100 µM (inactive) | 
COc1ccc(/C=C/c2ccnc3ccccc23)cc1OC | 18.1 µM (inactive) | 9.79 µM (inactive) | 15.6 µM (inactive) | 13.8 µM (inactive) | 12.6 µM (inactive) | 12.9 µM (inactive) | 14.1 µM (inactive) | 44.3 µM (inactive) |  | 17.9 µM (inactive) | 15.8 µM (inactive) | 13.1 µM (inactive) | 6.82 µM (inactive) | 0.186 µM (active) | 15.7 µM (inactive) | 19.1 µM (inactive) | 5.65 µM (inactive) | 14.7 µM (inactive) | 14.6 µM (inactive) | 11.3 µM (inactive)
O=C1C=CC2(O[C@@H](Cc3ccccc3)[C@H](Cc3ccccc3)O2)C(SC(=O)c2ccccc2)C1 (some centres undefined) | 1.38 µM (inactive) | 1.64 µM (inactive) | 1.54 µM (inactive) | 1.95 µM (inactive) | 1.73 µM (inactive) | 0.439 µM (active) | 0.853 µM (active) | 0.152 µM (active) | 2.52 µM (inactive) | 1.62 µM (inactive) | 1.53 µM (inactive) | 0.0849 µM (active) | 0.568 µM (active) | 0.586 µM (active) | 0.231 µM (active) | 0.19 µM (active) |  | 2.31 µM (inactive) |  | 1.18 µM (inactive)
COc1cc(Cc2nccc3cc(OC)c(OC)cc23)c(/N=N/N(C)C)cc1OC | 18.4 µM (inactive) | 4.28 µM (inactive) | 20.4 µM (inactive) | 19.9 µM (inactive) | 14.4 µM (inactive) | 20.5 µM (inactive) | 19 µM (inactive) | 4 µM (inactive) | 14.4 µM (inactive) | 14.3 µM (inactive) | 10.7 µM (inactive) | 2.99 µM (inactive) | 14.6 µM (inactive) | 10 µM (inactive) | 7.94 µM (inactive) | 5.27 µM (inactive) |  | 18.7 µM (inactive) | 14.6 µM (inactive) | 
CCOC(=O)C(=O)/C(=C/n1c(=S)[nH]c2ccc([N+](=O)[O-])cc21)C(=O)OCC | > 100 µM (inactive) | > 100 µM (inactive) | > 100 µM (inactive) | > 100 µM (inactive) | > 100 µM (inactive) | > 100 µM (inactive) | > 100 µM (inactive) | > 100 µM (inactive) | > 100 µM (inactive) | > 100 µM (inactive) | > 100 µM (inactive) | > 100 µM (inactive) | > 100 µM (inactive) | > 100 µM (inactive) | > 100 µM (inactive) | > 100 µM (inactive) |  | > 100 µM (inactive) |  | > 100 µM (inactive)
